From patent publication US9518052B2, “Pyrazolopyridines and pyrazolopyrimidines” (Pfizer Inc., priority 2014, dated 2016)
pIC50: −log10 of the molar value. Where a name gives a salt, the structure may show the parent alone. Read-outs that look alike come from different tables or passages of the source.

How the values were obtained:
[1] = test system: rhIL-2 stimulated STAT5 phosphorylation in isolated human T cells; assay: Human T Cell Assay: Inhibition of pSTAT5; type: cell-based
Procedure: Human T Cell Assay: Inhibition of pSTAT5
An assay measuring the efficacy of JAK inhibitors on the functional response of recombinant human interleukin-2 (rhIL-2) stimulated STAT5 phosphorylation in isolated human T cells.
Human whole blood from individual donors was collected from the phlebotomy unit on-site. Peripheral venous blood (30-60 mL) from healthy volunteers of either sex was used as the source of T cells. T cell isolation from venous whole blood is routinely performed in a class II microbiological safety cabinet. Each sample was collected into between 3 and 6 10 mL Sodium Heparin Vacutainer tubes (BD #367874). The blood was poured into sterile 50 mL conicals (Corning #430828) and incubated with the T cell Rosette Sep Cocktail (Stemcell Technologies #15061) at 50 μL/mL antibody/blood ratio for 20 min. with shaking at room temperature. The blood/antibody mixture was then diluted 1:2 with PBS (Pfizer media prep)/2% FBS (Sigma #F4135) and 30 mL of the mixture was layered onto 15 mL Ficoll-Hypaque (GE Healthcare #17-1440-03) in 50 mL conical tubes. The tubes were then centrifuged at 1200×g for 20 min. at room temperature with no brake. Following centrifugation the T cells formed a buffy coat between the Ficoll-Hypaque and plasma layers. The plasma above the buffy coats was removed to within 5 mm of the buffy coat using a sterile Pasteur pipette. The buffy coats were then collected into fresh sterile 50 mL conical tubes containing 25 mL PBS/2% FBS (2 buffy coats per 50 mL conical). PBS/2% FBS was added to the buffy coat cells such that the final volume in the tube was 50 mL. The tubes were then centrifuged at 200×g for 15 min. at room temperature. The supernatant was discarded and the pellet re-suspended in 10-20 mL of DMEM (Pfizer media prep) Assay media/0.2% BSA (Miltenyi #130-091-376). A differential cell count was performed using a haemacytometer and cells were diluted to 1.1×10^6 T cells/ml in DMEM/0.2% BSA media. Compounds (10 mM-0.3 μM) were diluted with Hanks Balanced Salt Solution (HBSS) (Sigma #H6648) at 1:100 dilution. Immediately following cell isolation and compound dilution, 90 μl/well of T cells (˜1×10^6/ml) in assay medium (DMEM+0.2% BSA) was added to the VWR Deep well V bottom plate (#3906-520-300). 10 μl/well of compound (final concentration range of 10 μM-0.3 nM with 0.1% DMSO) or 0.1% DMSO in HBSS as controls was added to the appropriate wells. Plates were incubated for 1 hour at 37° C., 5% CO2 incubator. 10 μl of 3.3 μg/mL rhIL-2 (R&D Systems #202-IL) was added to the cells (300 ng/ml final assay concentration). Wells containing T cells, medium with 0.1% DMSO and no rhIL-2 were used as background controls. […]
(§1) Data were collected and transformed into percent inhibition and calculated using the following formula: […]

[2] = test system: rhIFNγ stimulated STAT-3 phosphorylation in the A549 human epithelial cell line; assay: A549 Cell Assay: Inhibition of pSTAT3; type: cell-based; details: A549 cells
Procedure: A549 Cell Assay: Inhibition of pSTAT3
An assay measuring the efficacy of JAK inhibitors on the functional response of recombinant human interferon γ (rhIFNγ) stimulated STAT-3 phosphorylation in the A549 human epithelial cell line.
A549 cells (ATCC #CCL-185), were plated at 30,000 cells/well in 96 well flat bottomed tissue culture plates (BD#353072) in 200 μL of growth medium (DMEM, Pfizer media prep, with 10% Fetal Bovine Serum, Sigma #F4135, 2 mM L-Glutamine, Pfizer media prep, 100 U/mL penicillin, Pfizer media prep, and 200 μg/ml streptomycin, Pfizer media prep), and cultured at 37° C., 5% CO2 incubator for 18 hours. Growth medium was removed by vacuum aspiration (V&P Scientific #vp187 bp-60), and 90 μL of pre-warmed assay medium (DMEM with 0.2% BSA, Miltenyi #130-091-376) was added to each well and incubated for 15 minutes at 37° C. 10 μL of vehicle control or test compound (final concentration range of 0.3 nM to 10 μM with 0.1% DMSO) was added to the cells. Plates were incubated at 37° C. for 1 hour. After compound incubation, 10 μL of 220 ng/mL recombinant human IFNγ (R&D Systems #285-IF, final rhIFNγ concentration of 20 ng/mL) was added to the cells and plates were incubated for 30 minutes at 37° C. Wells containing A549 cells, medium with 0.1% DMSO and no rhIFNγ were used as background controls. After rhIFNγ stimulation, media was aspirated from each well and 35 μL/well of iced-cold MSD lysis buffer containing protease and phosphatase inhibitors from Phospho-STAT3 Tyr705 assay kit (Meso-Scale Discovery #K150DID) was added to each well. Plates were incubated at 4° C. with shaking for 30 minutes. Cell lysates were assayed following the MSD Phospho-STAT3 Tyr705 assay kit protocol to detect pSTAT3.
as §1

[3] = target: JAK1 (Homo sapiens (Human), UniProt P23458); assay: JAK Caliper Enzyme Assay at 1 mM ATP (JAK1); type: biochemical; details: Caliper assay at 1 mM ATP
JAK1, sequence (P23458 whole entry, species assumed): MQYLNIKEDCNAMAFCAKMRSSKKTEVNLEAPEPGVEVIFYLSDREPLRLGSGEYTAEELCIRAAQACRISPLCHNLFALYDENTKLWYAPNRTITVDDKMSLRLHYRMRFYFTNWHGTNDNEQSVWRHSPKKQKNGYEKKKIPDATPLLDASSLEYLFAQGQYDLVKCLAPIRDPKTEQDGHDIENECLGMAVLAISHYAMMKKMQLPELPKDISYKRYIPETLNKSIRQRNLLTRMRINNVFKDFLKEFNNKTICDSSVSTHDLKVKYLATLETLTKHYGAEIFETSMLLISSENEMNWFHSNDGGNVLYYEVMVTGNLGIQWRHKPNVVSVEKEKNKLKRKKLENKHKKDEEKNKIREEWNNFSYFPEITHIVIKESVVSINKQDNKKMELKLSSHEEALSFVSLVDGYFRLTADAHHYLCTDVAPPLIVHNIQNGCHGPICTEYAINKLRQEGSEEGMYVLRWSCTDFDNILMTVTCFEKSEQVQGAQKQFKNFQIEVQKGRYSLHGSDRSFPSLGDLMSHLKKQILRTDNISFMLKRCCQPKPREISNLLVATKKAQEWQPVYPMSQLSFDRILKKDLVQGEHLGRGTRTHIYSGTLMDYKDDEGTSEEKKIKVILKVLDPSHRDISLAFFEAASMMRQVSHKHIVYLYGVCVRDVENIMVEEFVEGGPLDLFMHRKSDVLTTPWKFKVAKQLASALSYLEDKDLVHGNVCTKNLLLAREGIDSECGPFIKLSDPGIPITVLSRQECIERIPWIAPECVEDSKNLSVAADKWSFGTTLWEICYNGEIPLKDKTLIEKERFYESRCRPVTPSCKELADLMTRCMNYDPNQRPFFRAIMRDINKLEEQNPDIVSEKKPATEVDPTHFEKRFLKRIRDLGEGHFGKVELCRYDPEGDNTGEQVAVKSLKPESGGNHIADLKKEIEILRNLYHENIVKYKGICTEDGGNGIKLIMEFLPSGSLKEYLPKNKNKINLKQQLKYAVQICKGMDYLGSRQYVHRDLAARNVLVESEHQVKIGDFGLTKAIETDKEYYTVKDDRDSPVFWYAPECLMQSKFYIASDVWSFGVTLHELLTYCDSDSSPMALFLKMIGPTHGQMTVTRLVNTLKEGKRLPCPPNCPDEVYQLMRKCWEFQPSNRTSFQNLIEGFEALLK

[4] = target: JAK2 (Homo sapiens (Human), UniProt O60674); assay: JAK Caliper Enzyme Assay at 1 mM ATP (JAK2); type: biochemical; details: Caliper assay at 1 mM ATP
JAK2, sequence (O60674 whole entry, species assumed): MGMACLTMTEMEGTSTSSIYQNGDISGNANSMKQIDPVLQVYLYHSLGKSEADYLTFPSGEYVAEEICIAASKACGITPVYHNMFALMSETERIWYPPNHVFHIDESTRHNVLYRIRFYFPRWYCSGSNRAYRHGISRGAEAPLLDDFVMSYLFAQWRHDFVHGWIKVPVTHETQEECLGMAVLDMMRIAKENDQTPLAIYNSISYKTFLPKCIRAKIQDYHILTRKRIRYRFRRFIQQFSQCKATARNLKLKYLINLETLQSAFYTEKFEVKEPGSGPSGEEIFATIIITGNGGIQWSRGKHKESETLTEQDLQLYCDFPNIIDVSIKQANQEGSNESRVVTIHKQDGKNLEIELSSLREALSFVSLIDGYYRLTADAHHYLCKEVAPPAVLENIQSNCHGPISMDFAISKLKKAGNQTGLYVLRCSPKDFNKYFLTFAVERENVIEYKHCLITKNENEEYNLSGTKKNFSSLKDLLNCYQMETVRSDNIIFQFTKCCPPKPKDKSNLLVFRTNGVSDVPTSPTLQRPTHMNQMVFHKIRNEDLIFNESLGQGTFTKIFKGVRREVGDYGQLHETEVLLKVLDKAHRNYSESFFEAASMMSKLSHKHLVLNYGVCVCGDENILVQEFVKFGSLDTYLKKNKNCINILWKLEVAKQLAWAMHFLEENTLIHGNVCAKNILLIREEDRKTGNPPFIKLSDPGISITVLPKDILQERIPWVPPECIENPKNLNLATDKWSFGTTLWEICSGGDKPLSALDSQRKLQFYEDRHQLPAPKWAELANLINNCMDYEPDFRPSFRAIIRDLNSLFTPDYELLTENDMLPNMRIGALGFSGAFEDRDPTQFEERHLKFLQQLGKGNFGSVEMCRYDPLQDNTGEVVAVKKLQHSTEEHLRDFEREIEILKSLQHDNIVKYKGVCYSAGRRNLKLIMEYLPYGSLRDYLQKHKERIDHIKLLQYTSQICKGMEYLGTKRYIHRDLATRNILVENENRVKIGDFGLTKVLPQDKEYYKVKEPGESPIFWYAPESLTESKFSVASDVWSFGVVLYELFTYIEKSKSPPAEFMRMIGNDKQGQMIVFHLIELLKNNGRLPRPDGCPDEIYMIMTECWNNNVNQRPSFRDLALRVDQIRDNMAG

[5] = target: JAK3 (Homo sapiens (Human), UniProt P52333); assay: JAK Caliper Enzyme Assay at 1 mM ATP (JAK3); type: biochemical; details: Caliper assay at 1 mM ATP
JAK3, sequence (P52333 whole entry, species assumed): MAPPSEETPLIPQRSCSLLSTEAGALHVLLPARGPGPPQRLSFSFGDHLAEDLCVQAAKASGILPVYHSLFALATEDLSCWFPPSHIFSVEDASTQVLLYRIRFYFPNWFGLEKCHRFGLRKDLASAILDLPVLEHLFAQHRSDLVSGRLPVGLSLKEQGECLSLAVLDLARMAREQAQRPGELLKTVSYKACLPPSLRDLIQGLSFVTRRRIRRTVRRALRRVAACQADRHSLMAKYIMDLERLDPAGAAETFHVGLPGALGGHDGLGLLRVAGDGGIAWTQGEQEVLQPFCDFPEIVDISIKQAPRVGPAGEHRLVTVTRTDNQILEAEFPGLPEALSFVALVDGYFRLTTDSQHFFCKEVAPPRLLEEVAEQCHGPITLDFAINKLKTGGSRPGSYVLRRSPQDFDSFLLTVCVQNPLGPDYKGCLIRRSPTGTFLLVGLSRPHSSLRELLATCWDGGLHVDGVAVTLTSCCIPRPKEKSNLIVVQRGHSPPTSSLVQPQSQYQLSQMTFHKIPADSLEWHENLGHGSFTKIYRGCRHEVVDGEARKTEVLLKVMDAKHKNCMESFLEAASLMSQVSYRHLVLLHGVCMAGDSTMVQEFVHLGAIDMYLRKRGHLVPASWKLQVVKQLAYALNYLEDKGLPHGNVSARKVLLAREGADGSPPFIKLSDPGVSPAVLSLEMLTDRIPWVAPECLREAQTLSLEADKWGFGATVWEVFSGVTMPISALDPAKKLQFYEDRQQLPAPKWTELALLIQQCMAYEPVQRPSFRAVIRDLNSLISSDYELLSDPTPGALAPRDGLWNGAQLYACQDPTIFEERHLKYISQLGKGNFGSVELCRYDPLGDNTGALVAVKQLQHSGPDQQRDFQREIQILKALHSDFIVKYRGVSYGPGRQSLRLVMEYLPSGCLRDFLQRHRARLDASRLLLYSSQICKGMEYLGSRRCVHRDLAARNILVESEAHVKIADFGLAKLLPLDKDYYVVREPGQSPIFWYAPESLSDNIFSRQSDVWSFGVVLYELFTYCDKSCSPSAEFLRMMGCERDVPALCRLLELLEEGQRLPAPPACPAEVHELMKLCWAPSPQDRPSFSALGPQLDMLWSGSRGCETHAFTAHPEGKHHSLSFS

[6] = target: TYK2 (Homo sapiens (Human), UniProt P29597); assay: JAK Caliper Enzyme Assay at 1 mM ATP (TYK2); type: biochemical; details: Caliper assay at 1 mM ATP
TYK2, sequence (P29597 whole entry, species assumed): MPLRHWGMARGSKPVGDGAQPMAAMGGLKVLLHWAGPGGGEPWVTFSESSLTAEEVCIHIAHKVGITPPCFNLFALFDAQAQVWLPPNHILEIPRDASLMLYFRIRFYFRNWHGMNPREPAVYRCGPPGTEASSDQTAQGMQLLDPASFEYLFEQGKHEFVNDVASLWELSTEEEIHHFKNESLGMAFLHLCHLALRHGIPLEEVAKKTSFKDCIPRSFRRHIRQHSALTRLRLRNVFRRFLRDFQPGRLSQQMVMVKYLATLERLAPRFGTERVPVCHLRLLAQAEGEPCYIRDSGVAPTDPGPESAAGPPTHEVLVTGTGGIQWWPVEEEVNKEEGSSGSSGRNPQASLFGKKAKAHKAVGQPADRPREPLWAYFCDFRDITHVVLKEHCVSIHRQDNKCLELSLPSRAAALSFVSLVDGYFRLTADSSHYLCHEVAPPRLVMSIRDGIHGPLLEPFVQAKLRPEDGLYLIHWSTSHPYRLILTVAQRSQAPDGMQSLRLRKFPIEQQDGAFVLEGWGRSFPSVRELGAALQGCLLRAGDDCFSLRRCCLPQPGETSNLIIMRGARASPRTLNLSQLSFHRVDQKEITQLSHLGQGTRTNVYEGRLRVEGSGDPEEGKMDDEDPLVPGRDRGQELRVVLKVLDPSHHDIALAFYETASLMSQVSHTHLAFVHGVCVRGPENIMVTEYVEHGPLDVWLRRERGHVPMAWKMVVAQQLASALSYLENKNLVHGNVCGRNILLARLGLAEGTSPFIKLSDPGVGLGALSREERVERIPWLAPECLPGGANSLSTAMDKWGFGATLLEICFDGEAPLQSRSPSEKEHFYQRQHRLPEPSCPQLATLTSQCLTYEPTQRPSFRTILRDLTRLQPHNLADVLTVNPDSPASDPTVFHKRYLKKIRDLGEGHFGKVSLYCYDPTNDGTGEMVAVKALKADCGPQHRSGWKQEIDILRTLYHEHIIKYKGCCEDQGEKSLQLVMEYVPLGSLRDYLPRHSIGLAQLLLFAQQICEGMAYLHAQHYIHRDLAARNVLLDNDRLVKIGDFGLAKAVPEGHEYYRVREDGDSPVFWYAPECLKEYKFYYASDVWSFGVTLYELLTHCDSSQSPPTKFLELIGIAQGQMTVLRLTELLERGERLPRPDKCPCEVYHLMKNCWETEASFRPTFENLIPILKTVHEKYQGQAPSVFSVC

## CNC(=O)c1n[nH]c2cc(-c3cc(F)c(O)cc3CC(F)(F)F)nc(NCc3ccccc3N(C)S(C)(=O)=O)c12 [Example 20, 6-[5-fluoro-4-hydroxy-2-(2,2,2-trifluoroethyl)phenyl]-N-methyl-4-({2-[methyl(methylsulfon-yl)amino]benzyl}ami-no)-1H-pyrazolo[4,3-c]pyridine-3-carboxamide]
[1]
  pIC50: 7.50
[2]
  pIC50: 7.73

## CCc1cc(O)c(F)cc1-c1nc(NCc2ccccc2N(C)S(C)(=O)=O)c2cn[nH]c2n1 [Example 155, N-[2-({[6-(2-Ethyl-5-fluoro-4-hydroxyphenyl)-1H-pyrazolo[3,4-d]pyrimidin-4-yl]amino}methyl)phenyl]-N-methylmethanesulfonamide hydrochloride]
[3]
  pIC50: 8.92
[4]
  pIC50: 8.30
[5]
  pIC50: 7.81
[2]; Homo sapiens
  pIC50: 7.52
[6]
  pIC50: 7.21

## CCc1cc(O)c(F)cc1-c1cc2[nH]nc(-c3nc(C)c(C)[nH]3)c2c(NCc2ccccc2N(C)S(C)(=O)=O)n1 [Example 158, N-[2-({[3-(4,5-Dimethyl-1H-imidazol-2-yl)-6-(2-ethyl-5-fluoro-4-hydroxyphenyl)-1H-pyrazolo[4,3-c]pyridin-4-yl]amino}methyl)phenyl]-N-methylmethanesulfonamide]
[3]
  pIC50: 8.28
[4]
  pIC50: 7.56
[5]
  pIC50: 6.94
[2]; Homo sapiens
  pIC50: 7.50
[6]
  pIC50: 7.48

## Cc1nnc(-c2n[nH]c3cc(-c4cc(F)c(O)cc4CC(F)(F)F)nc(NCc4ccccc4N(C)S(C)(=O)=O)c23)[nH]1 [Example 164, N-{2-[({6-[5-Fluoro-4-hydroxy-2-(2,2,2-trifluoroethyl)phenyl]-3-(5-methyl-4H-1,2,4-triazol-3-yl)-1H-pyrazolo[4,3-c]pyridin-4-yl}amino)methyl]phenyl}-N-methylmethanesulfonamide]
[1]; T-cell
  pIC50: 5.41
[2]; Homo sapiens
  pIC50: 5.52

## Cc1ccc(-c2nnc(-c3n[nH]c4cc(-c5cc(F)c(O)cc5CC(F)(F)F)nc(NCc5ccccc5N(C)S(C)(=O)=O)c34)[nH]2)cn1 [Example 166, N-{2-[({6-[5-fFuoro-4-hydroxy-2-(2,2,2-trifluoroethyl)phenyl]-3-[5-(6-methylpyridin-3-yl)-4H-1,2,4-triazol-3-yl]-1H-pyrazolo[4,3-c]pyridin-4-yl}amino)methyl]phenyl}-N-methylmethanesulfonamide]
[3]
  pIC50: 7.68
[4]
  pIC50: 7.01
[5]
  pIC50: 6.49
[1]
  pIC50: 6.23
[2]
  pIC50: 6.16
[6]
  pIC50: 6.90

## CN(C)CCNC(=O)N1CCc2[nH]c(-c3n[nH]c4nc(-c5cc(F)c(O)cc5CC(F)(F)F)nc(NCc5cc(O)ccc5N(C)S(C)(=O)=O)c34)nc2C1 [Example 171, N-[2-(Dimethylamino)ethyl]-2-{6-[5-fluoro-4-hydroxy-2-(2,2,2-trifluoroethyl)phenyl]-4-({5-hydroxy-2-[methyl(methylsulfonyl)amino]benzyl}amino)-1H-pyrazolo[3,4-d]pyrimidin-3-yl}-1,4,6,7-tetrahydro-5H-imidazo[4,5-c]pyridine-5-carboxamide]
[1]; T-cell
  pIC50: 5.96
[2]; Homo sapiens
  pIC50: 5.80
